In patent US12338484B2, “FRET biosensor for detecting and reporting NAD+/NADH ratio changes” (Sartorius BioAnalytical Instruments, Inc., priority 2022, dated 2025):

Biological target: T1, Thermus aquaticus T-Rex FRET fusion, initial construct #1, mKOk-Rex(78-189)-cpmEGFP(145/146)-Rex(190-211)-Rex(78-211), SEQ ID NO: 161 (Thermus aquaticus, UniProt Q9X2V5, INS189[…])
T1 construct: His-tag purified from E. coli (pET28c)
Assay: FRET response (emission spectra) of purified initial construct #1 in absence or presence of 40 uM NADH
Type: biochemical
Design: key: Good response: Constructs with very clear and robust spectra separation; Poor response: those with noticeable but small spectra separation; No response: those having no spectra separation
Experimental: 16 initial FRET constructs (See Table 3) were constructed using expression vector pET28c with a T7 promoter and lac operator and expressed in E. coli. Cells were collected and lysed using a commercially-available lysis buffer. Proteins of interest were isolated from the lysates using Ni-NTA magnetic beads. Eluted proteins were subjected to buffer exchange and final protein concentrating. To test performance of the initial FRET constructs, their emission spectra was recorded on a plate reader in absence or presence of 40 uM NADH. Resulting emission spectra with or without the ligand were normalized and overlaid for each construct. Constructs with very clear and robust spectra separation were labeled as having “good response”, those with noticeable but small spectra separation were labeled as having “poor response”, and finally those having no spectra separation were labeled as having “no response”.

T1 sequence (Q9X2V5 other isoform, or with tags, fused parts or gaps with the stated changes): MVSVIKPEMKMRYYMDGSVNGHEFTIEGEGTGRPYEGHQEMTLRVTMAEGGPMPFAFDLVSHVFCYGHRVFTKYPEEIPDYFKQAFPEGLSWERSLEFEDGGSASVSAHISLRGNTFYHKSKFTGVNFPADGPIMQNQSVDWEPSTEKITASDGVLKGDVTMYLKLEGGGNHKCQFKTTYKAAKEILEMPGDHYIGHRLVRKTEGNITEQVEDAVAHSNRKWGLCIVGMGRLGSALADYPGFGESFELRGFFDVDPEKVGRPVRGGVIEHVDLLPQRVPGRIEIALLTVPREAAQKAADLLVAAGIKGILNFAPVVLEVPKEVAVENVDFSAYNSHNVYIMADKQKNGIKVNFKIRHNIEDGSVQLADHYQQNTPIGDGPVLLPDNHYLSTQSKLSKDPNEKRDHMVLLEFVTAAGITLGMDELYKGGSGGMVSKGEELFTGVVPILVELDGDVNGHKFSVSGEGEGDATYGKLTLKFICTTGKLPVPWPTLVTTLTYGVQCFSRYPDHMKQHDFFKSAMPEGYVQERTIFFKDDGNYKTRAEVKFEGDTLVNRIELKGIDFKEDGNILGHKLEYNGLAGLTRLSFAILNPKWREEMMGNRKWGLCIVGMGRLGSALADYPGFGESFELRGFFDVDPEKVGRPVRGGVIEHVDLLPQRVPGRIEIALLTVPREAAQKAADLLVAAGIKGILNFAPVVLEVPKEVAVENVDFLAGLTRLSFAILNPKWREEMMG

NC(=O)C1=CN([C@@H]2O[C@H](COP(=O)(O)OP(=O)(O)OC[C@H]3O[C@@H](n4cnc5c(N)ncnc54)[C@H](O)[C@@H]3O)[C@@H](O)[C@H]2O)C=CC1 [NADH]
FRET response to NADH: No response
